Assay results taken from patent US20170003277A1 (priority 2015, published 2017).

Legend:
[1] = tested on: mouse splenocytes; assay: Immunological cell type enrichment for genes modulated by GA in mouse splenocytes; assay type: cell-based; design: Score: scale not given here
Excerpt: (§1) Genome-wide expression profiles in cells from three different datasets in two different species (human, mouse) were studied. LIMMA was utilized to identify a genome-wide list of differentially expressed genes induced by GA in the primed and ex vivo stimulated mouse splenocytes, as well as in the THP-1 human monocyte cell line. Repeated-measures ANOVA was utilized to find a genome-wide list of genes modulated by GA in treated MS patients. Advanced enrichment algorithms were then applied to elucidate the pathways and cell types modulated by GA.
In addition to the shared induced effects discussed above, each system and platform clearly captured different aspects of GA's impact on the immune system. […] In human PBMCs, genes associated with immune cell types were modulated early in treatment (by month 3), including certain cell types affected in prior systems, but also distinct cell types, such as megakaryocytes and myeloid progenitors (Table 11).

[2] = tested on: THP-1 human monocyte cell line; assay: Luminex secreted cytokines and chemokines from THP-1 cells, 24 hours, Polimunol or Probioglat vs Copaxone (Example 13); assay type: cell-based; settings: mannitol control
Description: To evaluate effects of Copaxone at the protein level, and assess the extent to which differences observed at the mRNA level (using micaroarry and qRT-PCR) were further consistent with effects observed at the level of the translated proteins, levels of 42 secreted cytokines and chemokines were measured using Luminex technology, analyzing the supernatant of THP-1 cells (human monocyte cell line) stimulated for 24 hours with Copaxone, FOGA, or mannitol control.
Measurements were also undertaken at the protein level, in order to assess the biological relevance of the observed gene expression differences. Levels of a panel of secreted cytokines and chemokines were measured via Luminex from THP-1 cells stimulated with branded GA, Polimunol, or Probioglat.
Cells from the THP-1 human monocyte cell line were incubated with branded GA, FOGA (Polimunol or Probioglat), or vehicle control (mannitol) for 24 hours. This time point was chosen in order to reflect translation of mRNA expression patterns observed in the same study design at 6 hours post stimulation. Supernatants were collected and assayed for the concentration of selected proteins using a Luminex assay. A total of 5 biological replicates per condition were utilized.
Data (concentrations in pg/mL) were compared using a two-sided t-test with equal variance, and corrected for multiple hypothesis testing using Benjamini-Hochberg correction. […]

[3] = tested on: mouse splenocytes, THP-1 human monocyte cell line, PBMCs from MS patients; assay: Integrated analysis of genes modulated by Copaxone across mouse splenocytes, THP-1 human monocytes and MS patient PBMCs; settings: human monocytes
Excerpt: as §1
The genes modulated by GA treatment in multiple studies were examined for enrichment in particular immunological cell types.

[4] = tested on: mouse splenocytes, THP-1 human monocyte cell line, PBMCs from MS patients; settings: prior study (ACTRIMS-ECTRIMS 2014, P282); cited from earlier work
[5] = B.GC.Sp.rnk, Upregulated (top 20 results)
[6] = DC.103.11b..LuLN.rnk, Downregulated (top 20 results)
[7] = DC.103.11b..PolyIC.Lu.rnk, Upregulated (top 20 results)
[8] = DC.103.11b.24..Lu.rnk, Upregulated (top 20 results)
[9] = DC.8.4.11b..SLN.rnk, Downregulated (top 20 results)
[10] = DC.Ilhilang.103.11b..SLN.rnk, Downregulated (top 20 results)
[11] = DC.Ilhilang.103.11blo.SLN.rnk, Downregulated (top 20 results)
[12] = DC.LC.Sk.rnk, Upregulated (top 20 results)
[13] = GN.Arth.BM.rnk, Downregulated (top 20 results)
[14] = GN.Arth.SynF.rnk, Downregulated (top 20 results)
[15] = GN.BI.rnk, Downregulated (top 20 results)
[16] = GN.BM.rnk, Downregulated (top 20 results)
[17] = GN.Thio.PC.rnk, Downregulated (top 20 results)
[18] = GN.UrAc.PC.rnk, Downregulated (top 20 results)
[19] = Mo.6C.Il..BM.rnk, Downregulated (top 20 results)
[20] = Mo.6C.Ilint.BI.rnk, Downregulated (top 20 results)
[21] = NK.H..MCMV1.Sp.rnk, Upregulated (top 20 results)
[22] = NK.MCMV1.Sp.rnk, Upregulated (top 20 results)
[23] = SC.CDP.BM.rnk, Downregulated (top 20 results)
[24] = SC.GMP.BM.rnk, Downregulated (top 20 results)
[25] = SC.MDP.BM.rnk, Downregulated (top 20 results)
[26] = SC.MEP.BM.rnk, Upregulated (top 20 results)
[27] = T.4FP3.25..AA.rnk, Upregulated (top 20 results)
[28] = T.4SP24int.Th.rnk, Downregulated (top 20 results)
[29] = T.8Eff.Sp.OT1.12hr.LisOva.rnk, Upregulated (top 20 results)
[30] = T.8Eff.Sp.OT1.24hr.LisOva.rnk, Upregulated (top 20 results)
[31] = T.8Eff.Sp.OT1.48hr.LisOva.rnk, Upregulated (top 20 results)
[32] = T.8Nve.Sp.OT1.rnk, Downregulated (top 20 results)
[33] = T.DPbl.Th.rnk, Upregulated (top 20 results)
[34] = T.ISP.Th.rnk, Upregulated (top 20 results)
[35] = Tgd.vg2.24ahi.e17.Th.rnk, Upregulated (top 20 results)
[36] = Tgd.vg3.24alo.e17.Th.rnk, Upregulated (top 20 results)
[37] = preB.FrC.BM.rnk, Upregulated (top 20 results)
[38] = preT.DN3B.Th.rnk, Upregulated (top 20 results)
[39] = preT.DN3.4.Th.rnk, Upregulated (top 20 results)
[40] = proB.CLP.BM.rnk, Downregulated (top 20 results)
[41] = proB.CLP.FL.rnk, Downregulated (top 20 results)
[42] = proB.FrA.FL.rnk, Upregulated (top 20 results)
[43] = proB.FrBC.FL.rnk, Upregulated (top 20 results)

**Q.** Which Score [1, 5] does the source give for glatiramer acetate [Copaxone®] here?
**A.** The Score was 602.5.

**Q.** And the p.val [1, 5]?
**A.** The p.val was 1.01E−12.

**Q.** What about the Score [1, 6] of the same substance?
**A.** The Score was 1152.

**Q.** What about the p.val [1, 6] of the same substance?
**A.** Its p.val is 2.47E−06.

**Q.** And the Score [1, 7]?
**A.** The Score was 705.

**Q.** And the p.val [1, 7]?
**A.** The p.val was 1.44E−14.

**Q.** And the Score [1, 8]?
**A.** The Score was 738.3.

**Q.** What about the p.val [1, 8] of the same substance?
**A.** Its p.val is 8.91E−12.

**Q.** What about the Score [1, 9] of the same substance?
**A.** The Score was 1117.

**Q.** And the p.val [1, 9]?
**A.** Its p.val is 1.86E−07.

**Q.** What about the Score [1, 10] of the same substance?
**A.** Its Score is 1151.

**Q.** What about the p.val [1, 10] of the same substance?
**A.** Its p.val is 9.94E−08.

**Q.** And the Score [1, 11]?
**A.** Its Score is 1112.

**Q.** And the p.val [1, 11]?
**A.** Its p.val is 5.07E−08.

**Q.** What about the Score [1, 12] of the same substance?
**A.** Its Score is 709.9.

**Q.** And the p.val [1, 12]?
**A.** The p.val was 2.89E−15.

**Q.** What about the Score [1, 13] of the same substance?
**A.** Its Score is 1218.

**Q.** And the p.val [1, 13]?
**A.** The p.val was 0.

**Q.** And the Score [1, 14]?
**A.** Its Score is 1160.

**Q.** What about the p.val [1, 14] of the same substance?
**A.** The p.val was 2.72E−11.

**Q.** What about the Score [1, 15] of the same substance?
**A.** The Score was 1185.

**Q.** What about the p.val [1, 15] of the same substance?
**A.** Its p.val is 6.66E−15.

**Q.** And the Score [1, 16]?
**A.** The Score was 1212.

**Q.** What about the p.val [1, 16] of the same substance?
**A.** The p.val was 1.11E−16.

**Q.** What about the Score [1, 17] of the same substance?
**A.** Its Score is 1197.

**Q.** What about the p.val [1, 17] of the same substance?
**A.** Its p.val is 6.39E−14.

**Q.** What about the Score [1, 18] of the same substance?
**A.** Its Score is 1145.

**Q.** And the p.val [1, 18]?
**A.** The p.val was 5.87E−14.

**Q.** What about the Score [1, 19] of the same substance?
**A.** Its Score is 1095.

**Q.** And the p.val [1, 19]?
**A.** The p.val was 1.71E−06.

**Q.** What about the Score [1, 20] of the same substance?
**A.** The Score was 1107.

**Q.** What about the p.val [1, 20] of the same substance?
**A.** The p.val was 1.62E−05.

**Q.** And the Score [1, 21]?
**A.** The Score was 770.8.

**Q.** And the p.val [1, 21]?
**A.** The p.val was 7.11E−15.

**Q.** What about the Score [1, 22] of the same substance?
**A.** The Score was 793.3.

**Q.** What about the p.val [1, 22] of the same substance?
**A.** Its p.val is 1.51E−14.

**Q.** And the Score [1, 23]?
**A.** The Score was 1078.

**Q.** What about the p.val [1, 23] of the same substance?
**A.** Its p.val is 0.

**Q.** And the Score [1, 24]?
**A.** Its Score is 1341.

**Q.** What about the p.val [1, 24] of the same substance?
**A.** The p.val was 1.56E−05.

**Q.** What about the Score [1, 25] of the same substance?
**A.** The Score was 1206.

**Q.** What about the p.val [1, 25] of the same substance?
**A.** Its p.val is 1.56E−05.

**Q.** And the Score [1, 26]?
**A.** Its Score is 641.2.

**Q.** What about the p.val [1, 26] of the same substance?
**A.** The p.val was 0.

**Q.** And the Score [1, 27]?
**A.** The Score was 697.6.

**Q.** What about the p.val [1, 27] of the same substance?
**A.** Its p.val is 2.76E−11.

**Q.** What about the Score [1, 28] of the same substance?
**A.** Its Score is 1040.

**Q.** What about the p.val [1, 28] of the same substance?
**A.** The p.val was 0.

**Q.** What about the Score [1, 29] of the same substance?
**A.** Its Score is 683.

**Q.** What about the p.val [1, 29] of the same substance?
**A.** The p.val was 0.

**Q.** What about the Score [1, 30] of the same substance?
**A.** Its Score is 661.8.

**Q.** And the p.val [1, 30]?
**A.** Its p.val is 5.97E−14.

**Q.** And the Score [1, 31]?
**A.** The Score was 587.7.

**Q.** What about the p.val [1, 31] of the same substance?
**A.** The p.val was 0.

**Q.** What about the Score [1, 32] of the same substance?
**A.** The Score was 1095.

**Q.** What about the p.val [1, 32] of the same substance?
**A.** The p.val was 0.

**Q.** What about the Score [1, 33] of the same substance?
**A.** Its Score is 659.3.

**Q.** What about the p.val [1, 33] of the same substance?
**A.** Its p.val is 0.

**Q.** What about the Score [1, 34] of the same substance?
**A.** The Score was 584.9.

**Q.** And the p.val [1, 34]?
**A.** The p.val was 0.

**Q.** What about the Score [1, 35] of the same substance?
**A.** The Score was 620.

**Q.** What about the p.val [1, 35] of the same substance?
**A.** The p.val was 9.88E−13.

**Q.** And the Score [1, 36]?
**A.** The Score was 620.8.

**Q.** What about the p.val [1, 36] of the same substance?
**A.** Its p.val is 2.72E−11.

**Q.** And the Score [1, 37]?
**A.** Its Score is 620.2.

**Q.** And the p.val [1, 37]?
**A.** The p.val was 0.

**Q.** What about the Score [1, 38] of the same substance?
**A.** Its Score is 568.

**Q.** What about the p.val [1, 38] of the same substance?
**A.** Its p.val is 1.64E−10.

**Q.** And the Score [1, 39]?
**A.** The Score was 560.7.

**Q.** And the p.val [1, 39]?
**A.** The p.val was 2.96E−10.

**Q.** And the Score [1, 40]?
**A.** Its Score is 1181.

**Q.** What about the p.val [1, 40] of the same substance?
**A.** The p.val was 1.35E−06.

**Q.** What about the Score [1, 41] of the same substance?
**A.** The Score was 1115.

**Q.** And the p.val [1, 41]?
**A.** The p.val was 0.

**Q.** And the Score [1, 42]?
**A.** The Score was 578.6.

**Q.** What about the p.val [1, 42] of the same substance?
**A.** The p.val was 7.17E−11.

**Q.** What about the Score [1, 43] of the same substance?
**A.** Its Score is 595.3.

**Q.** What about the p.val [1, 43] of the same substance?
**A.** The p.val was 0.

**Q.** What about the “CCL2 secreted level relative to control” value [2] of the same substance?
**A.** The value was “not modulated”.

**Q.** And the “IL-10 gene expression in all 3 systems” value [3]?
**A.** The value was “Upregulated expression”.

**Q.** What about the “Number of genes modulated significantly by GA in all three studies” value [3] of the same substance?
**A.** The value was 39.

**Q.** What about the “Genes modulated by Copaxone in both mouse splenocyte and THP-1 systems” value [4] of the same substance?
**A.** The value was 1,378.

**Q.** What about the “Genes modulated by Copaxone only in THP-1 cells” value [4] of the same substance?
**A.** Its value is 2,121.

**Q.** What about the “Genes modulated by Copaxone only in splenocytes” value [4] of the same substance?
**A.** The value was 6,691.
